Results on 15 molecules are retold here after ChEMBL document CHEMBL5532750, “Small molecule targeted therapies for endometrial cancer: progress, challenges, and opportunities” (RSC Med Chem, 2024).

The test system of experiment [1] is HEC-1B cell line. In words: Antiproliferative activity against human HEC-1B cell line assessed as reduction in cell viability.
The subject of experiment [2] is Ishikawa. In words: Antiproliferative activity against human Ishikawa cells assessed as reduction in cell viability. The class given is functional, cell-based.
The subject of experiment [3] is Ishikawa. In words: Antiproliferative activity against human Ishikawa cells assessed as combination index incubated for 48 hrs in presence of Metformin by MTT assay. Type of experiment: functional. (In general: Tetrazolium dyes change colour on reduction, which living cells bring about.)
Experiment [4] concerns ECC-1. As to the kind of experiment: Antiproliferative activity against human ECC-1 cells assessed as combination index incubated for 48 hrs in presence of Metformin by MTT assay. Type of experiment: functional.
Experiment [5] has as its system ECC-1. In words: Antiproliferative activity against human ECC-1 cells assessed as reduction in cell viability. Type of experiment: functional, cell-based.
Experiment [6] concerns Ishikawa. As to the kind of experiment: Anticancer activity against human Ishikawa cells assessed as cell mortality rate at 100 uM measured after 48 hrs by MTT assay relative to control. Type of experiment: functional.
For experiment [7], the system named is Ishikawa. As to the kind of experiment: Antiproliferative activity against human Ishikawa cells assessed as inhibition of VEGF secretion measured after 24 hrs by ELISA assay. The class given is functional, cell-based. (In general: An ELISA detects its analyte on a solid surface through an enzyme-linked reagent.)
Experiment [8] deals with Ishikawa. As to the kind of experiment: Anticancer activity against human Ishikawa cells assessed as cell mortality rate at 100 uM measured after 24 hrs by MTT assay relative to control. Type of experiment: functional.
The test system of experiment [9] is Ishikawa. As to the kind of experiment: Anticancer activity against human Ishikawa cells assessed as cell mortality rate at 600 uM measured after 48 hrs by MTT assay relative to control. Type of experiment: functional.
For experiment [10], the system named is Ishikawa. As to the kind of experiment: Induction of apoptosis in human Ishikawa cell line assessed as fold change incubated for 48 hrs. The class given is functional.
For the next experiment, the system named is RL95-2. In words: Induction of apoptosis in human RL95-2 cells assessed as fold change incubated for 48 hrs. The class given is functional.
In experiment [11] the test system is HEC-1B cell line. As to the kind of experiment: Induction of apoptosis in human HEC-1B cell line assessed as fold change incubated for 48 hrs. The class given is functional.
In experiment [12] the test system is SPEC-2. In words: Inhibition of cell invasion in serum-starved human SPEC-2 cells at 0.05 to 5 uM incubated for 3.5 hrs by calcein AM staining based plate reader analysis relative to control. Type of experiment: functional. The following applies: dose 0.05-5 µM.
The test system of experiment [13] is SPEC-2. As to the kind of experiment: Antiproliferative activity against human SPEC-2 cells assessed as reduction in cell viability incubated for 72 hrs by MTT assay. Type of experiment: functional, cell-based. To be noted: SPEC-2, 72 h.
Experiment [14] relates to Ishikawa. As to the kind of experiment: Antitumor activity against human Ishikawa cells xenografted in LKB1fl/flp53fl/fl mouse assessed as tumor growth inhibition (reference value: 68 %). Type of experiment: functional. On the technique in general: A xenograft is tissue or cells of one species grown in another, often human tumour cells in immunodeficient mice.
Experiment [15] concerns USPC-ARK-1. As to the kind of experiment: Induction of cell death in human USPC-ARK-1 cells assessed as increase in ROS level at 5 uM incubated for 24 hrs by DCFH-DA based microplate reader analysis relative to control. The class given is functional.
In experiment [16] the test system is USPC-ARK-1. In words: Induction of apoptosis in human USPC-ARK-1 cells assessed as decrease in mitochondrial membrane potential at 5 uM incubated for 8 hrs by JC-1 fluorescent probe based plate reader analysis. Type of experiment: functional. The arrangement: scale not given: the % may be the effect or the level left.
In experiment [17] the test system is USPC-ARK-1. In words: Induction of cell death in human USPC-ARK-1 cells assessed as increase in cleaved caspase-3 by measuring fold change using Ac-DEVD-AMC as substrate at 5 uM incubated for 24 hrs followed by substrate addition and measured after 30 mins by ELISA analysis. The following applies: time 1470 min, 24.5 h. Type of experiment: functional.
Experiment [18] has as its system SPEC-2. As to the kind of experiment: Induction of apoptosis in human SPEC-2 cells assessed as decrease in mitochondrial membrane potential at 5 uM incubated for 8 hrs by JC-1 fluorescent probe based plate reader analysis. More on the design: scale not given: the % may be the effect or the level left. Type of experiment: functional.
In experiment [19] the test system is SPEC-2. In words: Induction of cell death in human SPEC-2 cells assessed as increase in cleaved caspase-3 by measuring fold change using Ac-DEVD-AMC as substrate at 5 uM incubated for 24 hrs followed by substrate addition and measured after 30 mins by ELISA analysis. Type of experiment: functional. To be noted: time 1470 min, 24.5 h.
Experiment [20] relates to USPC-ARK-1. As to the kind of experiment: Induction of cell death in human USPC-ARK-1 cells assessed as increase in caspase-9 by measuring fold change using […] as substrate at 5 uM incubated for 24 hrs followed by substrate addition and measured after 30 mins by ELISA analysis. Type of experiment: functional. The following applies: time 1470 min, 24.5 h.
Experiment [21] has as its system SPEC-2. In words: Induction of cell death in human SPEC-2 cells assessed as increase in ROS level at 5 uM incubated for 24 hrs by DCFH-DA based microplate reader analysis relative to control. The class given is functional.
The subject of experiment [22] is USPC-ARK-1. In words: Antiproliferative activity against human USPC-ARK-1 cells assessed as reduction in cell viability incubated for 72 hrs by MTT assay. Type of experiment: functional, cell-based. The following applies: USPC-ARK-1, 72 h.
Experiment [23] has as its system SPEC-2. As to the kind of experiment: Induction of cell death in human SPEC-2 cells assessed as increase in caspase-9 by measuring fold change using […] as substrate at 5 uM incubated for 24 hrs followed by substrate addition and measured after 30 mins by ELISA analysis. The class given is functional. To be noted: time 1470 min, 24.5 h.
The subject of experiment [24] is USPC-ARK-1. In words: Inhibition of cell invasion in serum-starved human USPC-ARK-1 cells at 0.05 to 5 uM incubated for 3.5 hrs by calcein AM staining based plate reader analysis relative to control. The class given is functional. To be noted: dose 0.05-5 µM.
In experiment [25] the test system is ECC-1. In words: Antitumor activity against human ECC-1 cells xenografted in LKB1fl/flp53fl/fl mouse assessed as tumor growth inhibition (reference value: 68 %). Type of experiment: functional.
Experiment [26] deals with Ishikawa. As to the kind of experiment: Antiproliferative activity against human Ishikawa cells assessed as combination index at 0.5 mM incubated for 48 hrs in presence of paclitaxel by MTT assay. The class given is functional.
The test system of experiment [27] is ECC-1. In words: Antiproliferative activity against human ECC-1 cells assessed as combination index at 0.5 mM incubated for 48 hrs in presence of paclitaxel by MTT assay. The class given is functional.

In the case of `NC(=O)c1cccc2cn(-c3ccc([C@@H]4CCCNC4)cc3)nc12` [NIRAPARIB], the concentration for half-maximal inhibition (IC50) was 127 nM in the experiment with HEC-1B cell line [1] and 24 nM in the experiment on Ishikawa [2].

As to `CC(=O)O[C@H]1C(=O)[C@@]2(C)[C@H]([C@H](OC(=O)c3ccccc3)[C@]3(O)C[C@H](OC(=O)[C@H](O)[C@@H](NC(=O)c4ccccc4)c4ccccc4)C(C)=C1C3(C)C)[C@]1(OC(C)=O)CO[C@@H]1C[C@@H]2O` [PACLITAXEL], the CI in the experiment with Ishikawa [3] and with ECC-1 [4] was less than 1 throughout. Also, the concentration for half-maximal inhibition (IC50) in the experiment with ECC-1 [5] turned out to be 0.1 nM; in the experiment on Ishikawa [2], 0.5 nM.

As to `OB(O)c1cccc(/C=N/c2ccc(-c3ccc(/N=C/c4cccc(B(O)O)c4)cc3)cc2)c1`, the Activity in the experiment on Ishikawa [6] was found to be 84%.

On to `CCN(CC)CCCOc1ccc(-n2c3c(c4ccccc4c2=O)C(=O)c2ccccc2-3)cc1`, for which the IC50 in the experiment with Ishikawa [7] is 3.08 nM.

Regarding `O=C(O)CSC[C@H](/N=C/c1ccc(B(O)O)cc1)C(=O)O`, the Activity in the experiment on Ishikawa [8] came out at 54%; in the experiment with Ishikawa [6], 49%.

As to `OB(O)c1ccc(/C=N/c2cccc3cccc(/N=C/c4ccc(B(O)O)cc4)c23)cc1`, the Activity in the experiment with Ishikawa [6] is 72%.

With `CC(C)CC(/N=C/c1ccc(B(O)O)cc1)C(=O)O` (stereo not drawn), in the experiment on Ishikawa [9], the Activity is 76%.

Regarding `OB(O)c1ccc(/C=N/c2ccc(-c3ccc(/N=C/c4ccc(B(O)O)cc4)cc3)cc2)cc1`, in the experiment on Ishikawa [9], the Activity is recorded as 14%.

Take `CCC(C)(C)C(=O)O[C@H]1C[C@@H](C)C=C2C=C[C@H](C)[C@H](CC[C@@H]3C[C@@H](O)CC(=O)O3)[C@H]21` [SIMVASTATIN]: the “fold change (FC)” value is on record as 127 in the experiment with Ishikawa [10], 354 in the experiment with RL95-2 and 88 with HEC-1B cell line [11]. The IC50 was approximately 15000 nM in the experiment with ECC-1 [5] and approximately 17000 nM in the experiment on Ishikawa [2].

Take `O=c1[nH]cc(F)c(=O)[nH]1` [FLUOROURACIL]: the IC50 in the experiment with Ishikawa [2] was more than 100000 nM.

As for `O=C1C2=C(CCN(Cc3ccccc3)C2)N2CCN=C2N1Cc1ccc(F)cc1F` [ONC-206], the entries for the “inhibition (INH)” value with SPEC-2 [12] and with USPC-ARK-1 [24] were 34% and 26.6%, respectively. Moreover, the half-inhibitory concentration (IC50) with SPEC-2 [13] worked out at 240 nM; in the experiment with USPC-ARK-1 [22], 330 nM. The TGI with Ishikawa [14] and in the experiment with ECC-1 [25] was 73% in each case. In addition, the Activity in the experiment on USPC-ARK-1 [15] is 83%; with USPC-ARK-1 [16], 16%; in the experiment on SPEC-2 [18], 16%; in the experiment with SPEC-2 [21], 83%. For the same molecule, the “fold change (FC)” value in the experiment with USPC-ARK-1 [17] was found to be 1.7; in the experiment on SPEC-2 [19], 1.4; in the experiment on USPC-ARK-1 [20], 1.5; in the experiment on SPEC-2 [23] it was 1.4.

As for `O=C(O)CN=C(/N=C/c1ccc(B(O)O)cc1)/N=C/c1ccc(B(O)O)cc1`, in the experiment with Ishikawa [9], the Activity stood at 18%.

`CN(C)C(=N)NC(=N)N` [METFORMIN]: the CI in the experiment on Ishikawa [26] and with ECC-1 [27] was less than 1 in each case.

For `CC(C)CC(/N=C/c1cccc(B(O)O)c1)C(=O)O` (stereo not drawn), the Activity in the experiment on Ishikawa [9] turned out to be 88.3%.

As for `O=C(O)c1ccc(C(=O)O)c(/N=C/c2ccc(B(O)O)cc2)c1`, the Activity with Ishikawa [9] was found to be 72%.

The term IC50 denotes the concentration that inhibits the measured activity by half. The TGI is how far tumour growth fell short of that in controls.
